Data taken from ChEMBL document CHEMBL5465560, “Selectivity Literature for EUbOPEN Chemogenomic Library” (2024).
One block for each compound: values may come before it.

Assays:
[1] = biological target: T1, Cyclin-dependent kinase 11A (Homo sapiens) (UniProt Q9UQ88); experiment: Selectivity interaction (KinomeScan (DiscoverX)) EUB0000655a CDK11A; details: at 10 µM
T1 sequence (whole entry): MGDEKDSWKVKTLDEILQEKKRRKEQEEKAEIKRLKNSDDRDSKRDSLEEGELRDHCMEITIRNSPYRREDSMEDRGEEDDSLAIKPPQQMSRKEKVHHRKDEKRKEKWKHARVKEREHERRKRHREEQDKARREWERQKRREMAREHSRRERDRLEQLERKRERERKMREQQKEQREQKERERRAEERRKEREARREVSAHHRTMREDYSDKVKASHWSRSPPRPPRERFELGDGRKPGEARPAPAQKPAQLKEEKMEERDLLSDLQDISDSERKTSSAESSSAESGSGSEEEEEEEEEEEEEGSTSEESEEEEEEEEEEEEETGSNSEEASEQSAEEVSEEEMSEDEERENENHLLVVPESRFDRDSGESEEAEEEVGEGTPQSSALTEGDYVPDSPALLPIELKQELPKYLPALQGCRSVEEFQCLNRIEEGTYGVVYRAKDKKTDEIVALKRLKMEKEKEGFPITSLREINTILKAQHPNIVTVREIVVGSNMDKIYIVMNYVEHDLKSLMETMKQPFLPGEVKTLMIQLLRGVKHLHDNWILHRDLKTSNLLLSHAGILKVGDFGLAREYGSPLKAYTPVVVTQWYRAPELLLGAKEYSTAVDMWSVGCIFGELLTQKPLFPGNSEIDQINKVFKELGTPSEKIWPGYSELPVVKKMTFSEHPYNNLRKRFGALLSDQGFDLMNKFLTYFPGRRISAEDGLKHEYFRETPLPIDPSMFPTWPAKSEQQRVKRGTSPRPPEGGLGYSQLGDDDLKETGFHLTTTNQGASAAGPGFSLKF

[2] = biological target: Interleukin-1 receptor-associated kinase 1 (Homo sapiens) (UniProt P51617); experiment: Selectivity interaction (KinomeScan (DiscoverX)) EUB0001079a IRAK1; details: at 1 µM
Interleukin-1 receptor-associated kinase 1 (Homo sapiens), sequence (P51617 whole entry, looked up): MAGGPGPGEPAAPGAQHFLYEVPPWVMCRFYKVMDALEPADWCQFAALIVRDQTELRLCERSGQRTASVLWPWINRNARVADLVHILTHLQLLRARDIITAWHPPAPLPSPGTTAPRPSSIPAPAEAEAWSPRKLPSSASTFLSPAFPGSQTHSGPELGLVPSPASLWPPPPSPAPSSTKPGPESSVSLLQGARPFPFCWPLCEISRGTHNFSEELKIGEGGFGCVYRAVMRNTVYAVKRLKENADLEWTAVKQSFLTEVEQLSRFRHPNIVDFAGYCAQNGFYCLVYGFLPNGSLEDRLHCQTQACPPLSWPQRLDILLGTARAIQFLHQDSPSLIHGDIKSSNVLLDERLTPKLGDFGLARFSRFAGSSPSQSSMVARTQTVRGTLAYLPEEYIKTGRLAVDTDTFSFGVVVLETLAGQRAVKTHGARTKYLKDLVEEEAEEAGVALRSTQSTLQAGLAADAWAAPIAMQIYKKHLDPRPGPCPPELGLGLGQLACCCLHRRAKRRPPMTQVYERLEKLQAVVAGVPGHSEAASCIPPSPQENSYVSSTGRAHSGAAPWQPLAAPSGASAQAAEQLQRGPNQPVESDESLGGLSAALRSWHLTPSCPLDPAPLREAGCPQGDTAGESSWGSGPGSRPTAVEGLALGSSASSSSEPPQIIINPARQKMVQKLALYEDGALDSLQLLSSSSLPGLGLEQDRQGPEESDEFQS

[3] = biological target: eIF-2-alpha kinase GCN2 (Homo sapiens) (UniProt Q9P2K8); experiment: Selectivity interaction (ActivX KiNativ screen (ex vivo kinase selectivity in human PBMCs)) EUB0001619a EIF2AK4; format: cell-based; details: PBMC, at 1 µM
eIF-2-alpha kinase GCN2 (Homo sapiens), sequence (Q9P2K8 whole entry): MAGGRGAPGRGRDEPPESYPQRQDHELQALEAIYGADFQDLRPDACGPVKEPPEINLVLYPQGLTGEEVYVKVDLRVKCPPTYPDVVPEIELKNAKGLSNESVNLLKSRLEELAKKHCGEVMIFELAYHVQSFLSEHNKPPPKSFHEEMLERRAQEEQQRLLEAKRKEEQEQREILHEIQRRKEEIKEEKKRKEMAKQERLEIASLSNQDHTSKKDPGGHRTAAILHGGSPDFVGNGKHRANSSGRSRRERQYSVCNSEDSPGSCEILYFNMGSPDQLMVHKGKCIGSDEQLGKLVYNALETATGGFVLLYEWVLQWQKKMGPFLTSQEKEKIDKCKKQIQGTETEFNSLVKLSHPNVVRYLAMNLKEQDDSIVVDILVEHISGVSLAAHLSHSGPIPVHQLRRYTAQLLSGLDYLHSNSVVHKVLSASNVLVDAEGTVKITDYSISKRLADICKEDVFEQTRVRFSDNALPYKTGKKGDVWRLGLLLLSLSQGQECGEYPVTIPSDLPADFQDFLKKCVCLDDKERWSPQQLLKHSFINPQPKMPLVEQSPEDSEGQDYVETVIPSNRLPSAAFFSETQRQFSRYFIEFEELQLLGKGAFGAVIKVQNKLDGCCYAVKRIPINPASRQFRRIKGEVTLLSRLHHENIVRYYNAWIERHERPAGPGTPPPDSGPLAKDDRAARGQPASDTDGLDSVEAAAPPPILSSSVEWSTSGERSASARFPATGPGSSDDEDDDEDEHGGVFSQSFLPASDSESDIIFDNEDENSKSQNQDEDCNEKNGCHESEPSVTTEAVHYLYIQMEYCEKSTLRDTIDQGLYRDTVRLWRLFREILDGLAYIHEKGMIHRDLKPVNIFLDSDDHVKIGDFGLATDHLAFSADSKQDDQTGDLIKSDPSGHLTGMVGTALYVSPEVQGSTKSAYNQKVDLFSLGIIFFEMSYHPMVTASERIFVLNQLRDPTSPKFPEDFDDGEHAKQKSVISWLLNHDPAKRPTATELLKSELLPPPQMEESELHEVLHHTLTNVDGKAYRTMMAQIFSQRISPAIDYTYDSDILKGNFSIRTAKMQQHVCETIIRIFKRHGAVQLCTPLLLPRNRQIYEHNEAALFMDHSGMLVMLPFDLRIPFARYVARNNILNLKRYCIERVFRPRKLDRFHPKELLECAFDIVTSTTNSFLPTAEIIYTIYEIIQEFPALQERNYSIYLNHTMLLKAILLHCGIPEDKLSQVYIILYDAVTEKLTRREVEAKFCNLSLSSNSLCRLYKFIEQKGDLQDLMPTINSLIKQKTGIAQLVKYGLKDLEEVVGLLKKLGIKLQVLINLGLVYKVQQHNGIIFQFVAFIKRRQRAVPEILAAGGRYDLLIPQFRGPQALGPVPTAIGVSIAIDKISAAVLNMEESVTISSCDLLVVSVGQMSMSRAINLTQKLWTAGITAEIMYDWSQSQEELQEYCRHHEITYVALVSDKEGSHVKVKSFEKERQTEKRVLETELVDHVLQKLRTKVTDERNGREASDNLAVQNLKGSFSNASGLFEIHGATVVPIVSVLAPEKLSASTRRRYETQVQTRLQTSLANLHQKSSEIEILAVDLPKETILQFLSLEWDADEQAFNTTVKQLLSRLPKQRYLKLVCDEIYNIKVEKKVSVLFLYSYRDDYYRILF

[4] = biological target: G protein-coupled receptor kinase 4 (Homo sapiens) (UniProt P32298); experiment: Selectivity interaction (KinomeScan (DiscoverX)) EUB0001619a GRK4; details: at 1 µM
G protein-coupled receptor kinase 4 (Homo sapiens), sequence (P32298 whole entry, looked up): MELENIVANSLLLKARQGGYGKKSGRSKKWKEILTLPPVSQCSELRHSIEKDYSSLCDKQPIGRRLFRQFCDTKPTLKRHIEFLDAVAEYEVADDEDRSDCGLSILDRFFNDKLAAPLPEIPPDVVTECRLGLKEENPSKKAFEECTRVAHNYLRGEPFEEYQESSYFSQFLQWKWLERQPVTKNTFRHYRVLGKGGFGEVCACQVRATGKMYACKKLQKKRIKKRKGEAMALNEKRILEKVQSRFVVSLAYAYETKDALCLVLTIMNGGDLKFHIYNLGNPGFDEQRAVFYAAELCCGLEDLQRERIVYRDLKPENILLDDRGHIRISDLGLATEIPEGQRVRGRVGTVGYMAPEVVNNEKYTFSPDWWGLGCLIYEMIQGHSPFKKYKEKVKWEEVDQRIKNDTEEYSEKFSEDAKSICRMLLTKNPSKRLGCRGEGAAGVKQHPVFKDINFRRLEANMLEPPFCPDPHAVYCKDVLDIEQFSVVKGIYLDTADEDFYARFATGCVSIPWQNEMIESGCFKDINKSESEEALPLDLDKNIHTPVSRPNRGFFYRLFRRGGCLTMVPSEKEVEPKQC

[5] = biological target: T2, Serine/threonine-protein kinase Nek9 (Homo sapiens) (UniProt Q8TD19); experiment: Selectivity interaction (ActivX KiNativ screen (kinase selectivity in THP-1 cell lysates)) EUB0000639a NEK9; format: subcellular; details: lysate
T2 sequence (whole entry): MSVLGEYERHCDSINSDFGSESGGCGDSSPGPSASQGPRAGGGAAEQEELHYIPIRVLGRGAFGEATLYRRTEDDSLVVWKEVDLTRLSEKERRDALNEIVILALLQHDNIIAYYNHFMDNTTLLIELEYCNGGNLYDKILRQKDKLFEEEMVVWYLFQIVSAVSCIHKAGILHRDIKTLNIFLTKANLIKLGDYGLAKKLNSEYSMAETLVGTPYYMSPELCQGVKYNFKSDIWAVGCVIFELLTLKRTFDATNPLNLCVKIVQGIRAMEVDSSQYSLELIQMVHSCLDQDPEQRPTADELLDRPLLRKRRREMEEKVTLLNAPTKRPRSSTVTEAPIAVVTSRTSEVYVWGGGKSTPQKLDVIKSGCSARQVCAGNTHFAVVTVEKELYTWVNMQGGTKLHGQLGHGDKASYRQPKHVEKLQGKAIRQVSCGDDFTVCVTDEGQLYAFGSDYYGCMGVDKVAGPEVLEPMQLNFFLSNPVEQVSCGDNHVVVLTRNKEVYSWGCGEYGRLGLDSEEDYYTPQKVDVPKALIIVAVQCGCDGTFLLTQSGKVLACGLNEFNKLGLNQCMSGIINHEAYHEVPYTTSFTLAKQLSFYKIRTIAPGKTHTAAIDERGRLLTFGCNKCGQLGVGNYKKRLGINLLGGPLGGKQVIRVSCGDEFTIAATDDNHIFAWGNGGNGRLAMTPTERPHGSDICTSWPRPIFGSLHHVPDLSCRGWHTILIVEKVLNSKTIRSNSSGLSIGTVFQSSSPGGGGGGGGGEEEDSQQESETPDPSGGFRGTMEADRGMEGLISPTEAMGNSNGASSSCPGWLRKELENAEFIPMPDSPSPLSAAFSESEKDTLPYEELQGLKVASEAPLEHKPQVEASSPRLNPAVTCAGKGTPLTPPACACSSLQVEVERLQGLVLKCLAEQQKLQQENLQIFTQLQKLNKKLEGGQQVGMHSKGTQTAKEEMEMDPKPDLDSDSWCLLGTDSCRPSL

[6] = biological target: Serine/threonine-protein kinase PAK 6 (Homo sapiens) (UniProt Q9NQU5); experiment: Selectivity interaction (Kinase panel (Invitrogen)) EUB0000639a PAK6; details: at 200 nM
Serine/threonine-protein kinase PAK 6 (Homo sapiens), sequence (Q9NQU5 whole entry, looked up): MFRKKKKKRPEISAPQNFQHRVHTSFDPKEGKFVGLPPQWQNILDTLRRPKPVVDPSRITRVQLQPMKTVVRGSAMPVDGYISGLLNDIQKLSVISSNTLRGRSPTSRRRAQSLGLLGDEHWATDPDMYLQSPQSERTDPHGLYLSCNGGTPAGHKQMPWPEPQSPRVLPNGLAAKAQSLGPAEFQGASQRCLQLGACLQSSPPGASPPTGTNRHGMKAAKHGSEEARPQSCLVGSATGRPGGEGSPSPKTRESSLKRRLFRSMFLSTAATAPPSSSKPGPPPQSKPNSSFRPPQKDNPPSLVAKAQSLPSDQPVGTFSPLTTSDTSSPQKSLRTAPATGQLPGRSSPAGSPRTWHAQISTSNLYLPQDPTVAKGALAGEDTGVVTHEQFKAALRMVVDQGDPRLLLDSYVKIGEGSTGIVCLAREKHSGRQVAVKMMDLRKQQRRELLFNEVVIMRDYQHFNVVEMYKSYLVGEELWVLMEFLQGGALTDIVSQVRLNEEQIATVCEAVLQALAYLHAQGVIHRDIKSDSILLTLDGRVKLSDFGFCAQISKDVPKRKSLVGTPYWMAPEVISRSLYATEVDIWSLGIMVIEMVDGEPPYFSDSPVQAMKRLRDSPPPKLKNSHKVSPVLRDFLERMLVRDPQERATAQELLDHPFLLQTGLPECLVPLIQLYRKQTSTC

[7] = biological target: T3, Serine/threonine-protein kinase ULK3 (Homo sapiens) (UniProt Q6PHR2); experiment: Selectivity interaction (KinomeScan (DiscoverX)) EUB0000695a ULK3; details: at 100 nM
T3 sequence (whole entry): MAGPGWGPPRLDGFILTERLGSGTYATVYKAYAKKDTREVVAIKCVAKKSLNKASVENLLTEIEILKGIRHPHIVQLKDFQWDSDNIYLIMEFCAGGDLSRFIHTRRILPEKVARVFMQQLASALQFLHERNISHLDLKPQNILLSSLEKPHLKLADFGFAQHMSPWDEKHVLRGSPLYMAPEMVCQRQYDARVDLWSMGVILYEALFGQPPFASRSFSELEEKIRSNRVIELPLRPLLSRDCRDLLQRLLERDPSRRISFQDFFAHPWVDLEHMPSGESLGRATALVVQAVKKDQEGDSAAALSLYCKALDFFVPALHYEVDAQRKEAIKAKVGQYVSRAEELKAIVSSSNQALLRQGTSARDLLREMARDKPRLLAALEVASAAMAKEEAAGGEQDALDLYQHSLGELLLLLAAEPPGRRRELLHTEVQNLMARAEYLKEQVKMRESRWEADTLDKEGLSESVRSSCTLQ

Structure (SMILES): CN(C)CCOc1ccc(-c2nc(-c3ccncc3)c(-c3ccc4c(c3)CC/C4=N\O)[nH]2)cc1
% of control [1]: 98%

Structure (SMILES): Nc1cnc(N2CCc3cc(S(=O)(=O)Nc4c(F)cc(Cl)cc4F)cc(N4CCCC4=O)c32)nc1 [TP-020n]
% of control [2]: 100%

Structure (SMILES): N#Cc1cccc(-c2c[nH]c3ncnc(N4CCOCC4)c23)c1
% of inhibition [3]: 1%
% of control [4]: 52%

% of inhibition [6]: 5.8%
Structure (SMILES): CC[C@@H]1[C@H](F)C(=O)N[C@@H]1COc1nccc2cc(C(N)=O)c(OC)cc12 [ZIMLOVISERTIB]
% of inhibition ([5]; at 0.01 µM): 0.3%
% of inhibition ([5]; at 0.04 µM): -3.6%
% of inhibition ([5]; at 0.2 µM): -11.2%
% of inhibition ([5]; at 1 µM): 7.7%
% of inhibition ([5]; at 5 µM): 0.4%

Structure (SMILES): Cc1cc(F)c(C(=O)Nc2cccc(-c3nncn3C(C)C)n2)cc1-n1cnc(C2CC2)c1
% of control [7]: 80%
